Data set [1] can be described thus: MCFG concentrations in the burn eschar of severe burn patients. It counts as in vivo, human. Conditions: patients with severe burn injuries; conclusion in words. As to the method:
Eight severe burn patients within 14 days after injuries (M:F = 5:3, 19 to 85 years old, 35 to 85% total body surface area) were treated with MCFG (200 to 300 mg, 3.45 to 4.49 mg/kg) once daily by intravenous infusion over 1 hour. The MCFG concentrations in the plasma at the end of the initial administration of MCFG (P1), just before the second dosing (T1), at the end of the fourth dosing (P4), and just before the fifth dosing (T4) were determined, and were compared with the reported values in health volunteers. MCFG concentrations in the burn eschar at T1 and T4 were also measured.

For data set [2] the following is noted: cited from earlier work. As to the method: The plasma concentrations of MCFG per dose normalized with body weight (C/D) at P1, T1, P4, and T4 were 1.37 to 6.28, 0.51 to 1.38, 3.20 to 6.46, and 0.65 to 2.18 (μg/ml)/(mg/kg), respectively, indicating marked interindividual differences. […] The MCFG concentrations in the burn eschar of three patients at T1 and T4 were <0.1 to 3.98 and 1.10 to 14.81 μg/ml, respectively. Most of MCFG concentrations in the plasma and burn eschar were higher than the reported MIC90 of MCF ...

Consider one molecule from article PMC3363478, “Pharmacokinetics of micafungin in patients with severe burn injuries” (Critical Care, 2012).

Numbered stars: 1 amine (or outer) side, 2 acyl side, 3 side chain; on linkers, the order of the positions; unused ones are H or OH. Bridge positions count the residues as written; N and C are the ends. Square brackets hold non-standard residues; d marks the D form. Peptide text beside a SMILES is read from it. * marks the point of attachment. hTyr(3S-OH,4S-OH,3'-OSO3H) = N[C@H](C(=O)O)[C@H](O)[C@@H](O)c1ccc(O)c(OS(=O)(=O)O)c1; Orn(4R-OH,5R-OH) = O=C([C@H](C[C@@H](O)[C@@H](O)N[*:3])N[*:1])[*:2]; Pro(3S-OH,4S-Me) = C[C@H]1CN[C@H](C(=O)O)[C@H]1O; X1 = CCCCCOc1ccc(-c2cc(-c3ccc(C(=O)*)cc3)no2)cc1; Gln(3R-OH) = NC(=O)C[C@@H](O)[C@H](N)C(=O)O; Hyp = O=C(O)[C@@H]1C[C@@H](O)CN1

In the case of `CCCCCOc1ccc(-c2cc(-c3ccc(C(=O)N[C@H]4C[C@@H](O)[C@@H](O)NC(=O)[C@@H]5[C@@H](O)[C@@H](C)CN5C(=O)[C@H]([C@H](O)CC(N)=O)NC(=O)[C@H]([C@H](O)[C@@H](O)c5ccc(O)c(OS(=O)(=O)O)c5)NC(=O)[C@@H]5C[C@@H](O)CN5C(=O)[C@H]([C@@H](C)O)NC4=O)cc3)no2)cc1` [MCFG, Micafungin] (X1-[Orn(4R-OH,5R-OH)]T[Hyp][hTyr(3S-OH,4S-OH,3'-OSO3H)][Gln(3R-OH)][Pro(3S-OH,4S-Me)]; lactam 1-C), the “penetration into burn eschar” value in data set [1] was “capable of penetrating burn eschar”. In addition, the “plasma C/D at P1, reported value in healthy volunteers” value in data set [2] (P1 = end of the initial administration) is on record as 5.7 (μg/ml)/(mg/kg). The “plasma C/D at T1, reported value in healthy volunteers” value in data set [2] (T1 = just before the second dosing) was 1.3 (μg/ml)/(mg/kg). The “plasma C/D at T4, reported value in healthy volunteers” value in data set [2] (T4 = just before the fifth dosing) was 2.1 (μg/ml)/(mg/kg).
